Measurements: patent publication US11542295B2, “Use of 20-hydroxyecdysone and the derivatives thereof in the treatment of myopathies” (BIOPHYTIS, priority 2017, dated 2023)

Key:
Type in all cases: in vivo, mouse
[1] = test system: tibialis anterior muscle of C57BL10 mdx mice; experiment: Maximum absolute isometric strength of the tibialis anterior muscle (in situ); conditions: 50 mg/kg*day, two months of treatment
Experimental: Twelve-week-old […] gene pool (wild mice referred to as “C57” in the figures) and […] mdx (mouse model of Duchenne muscular dystrophy, referred to as “mdx” in the figures) male mice, produced at Charles Rivers, were used. Two groups of mdx were chronically exposed per os either to BIO101 (number of mice n=9) or to BIO103 (number of mice n=9) at a dose of 50 mg/kg*day. A group of C57 mice (number of mice n=5) and a group of mdx mice (number of mice n=15) received the vehicle, i.e. no treatment. The animals of all of the groups were tested for their functional capacity (exertion tolerance test) after two months of treatment. The exertion tolerance test consists of measuring the maximum distance travelled (in-toto activity; FIGS. 1A and 1B). Furthermore, measurements of the maximum absolute isometric strength of the tibialis anterior muscle (in-situ activity; FIGS. 2A and 2B) were made after two months of treatment. The two-month oral treatment consists of force-feeding for five days a week and in drinking water two days a week. An assessment of in-situ contractility of the tibialis anterior muscle is carried out at the end of the protocol, i.e. after two months of treatment. […] The strength is measured during contractions in response to electrical stimulation (frequency of 75-150 Hz, duration of 500 ms). […] The maximum absolute isometric tetanic strength is measured.

[2] = test system: myh7 (beta myosin heavy chain); experiment: Heart mRNA expression of hypertrophy marker myh7 (semi-quantitative PCR); conditions: mdx mice, 50 mg/kg*day, two months; p<0.01
Experimental: Twelve-week-old […] gene pool (wild mice referred to as “C57” in the figures) and […] mdx (mouse model of Duchenne muscular dystrophy, referred to as “mdx” in the figures) male mice, produced at Charles Rivers, were used. Two groups of mdx were chronically exposed per os either to BIO101 (number of mice n=9) or to BIO103 (number of mice n=9) at a dose of 50 mg/kg*day. A group of C57 mice (number of mice n=5) and a group of mdx mice (number of mice n=15) received the vehicle, i.e. no treatment. The animals of all of the groups were tested for their functional capacity (exertion tolerance test) after two months of treatment. The exertion tolerance test consists of measuring the maximum distance travelled (in-toto activity; FIGS. 1A and 1B). […] The extract RNA is quantified by spectrophotometry then the quality thereof is verified and validated with the Experion RNA StdSens Analysis Kit (Bio-Rad). […] Finally, semi-quantitative PCR analysis was carried out using SYBR® Green (Roche), a DNA intercalating agent and a LightCycler® 480 Real Time PCR (Roche) apparatus on 384-well plates. The molecular markers measured are as follows: • CTGF and collagen I: connective tissue growth factor (CTGF) is associated with healing and with many pathological fibrotic processes including DMD (Brigstock 2010; Song Y. 2017). […]

[3] = test system: tibialis anterior muscle of C57BL10 mdx mice; experiment: Histological study of tibialis anterior muscle stained with haematoxylin eosin (lesion profiles); conditions: 50 mg/kg*day, two months, HE staining
Experimental: Twelve-week-old C57BL10 gene pool (wild mice referred to as “C57” in the figures) and C57BL10 mdx (mouse model of Duchenne muscular dystrophy, referred to as “mdx” in the figures) male mice, produced at Charles Rivers, were used. Two groups of mdx were chronically exposed per os either to BIO101 (number of mice n=9) or to BIO103 (number of mice n=9) at a dose of 50 mg/kg*day. A group of C57 mice (number of mice n=5) and a group of mdx mice (number of mice n=15) received the vehicle, i.e. no treatment. The animals of all of the groups were tested for their functional capacity (exertion tolerance test) after two months of treatment. The exertion tolerance test consists of measuring the maximum distance travelled (in-toto activity; FIGS. 1A and 1B). Furthermore, measurements of the maximum absolute isometric strength of the tibialis anterior muscle (in-situ activity; FIGS. 2A and 2B) were made after two months of treatment.
An assessment of muscle fibrosis by histological study is carried out on the tibialis anterior muscle (abbreviated as TA). Histological sections (7 μm) are produced and stained either with haematoxylin eosin (HE) or with Sirius Red (SR).
An anatomopathological study of the sections of tibialis anterior muscle stained with HE makes it possible to assess the degree of muscle fibre involvement. Representative images of tibialis anterior muscle sections stained with HE obtained from C57 animals (FIG. 4A), mdx animals (FIG. 4B), mdx animals treated with BIO101 (FIG. 4C) and mdx animals treated with BIO103 (FIG. 4D) are shown. The scale bars correspond to 200 μm. The TA muscles of C57 mice show no muscle lesions (FIG. 4A). The TA muscles of untreated mdx mice show a wide diversity of lesion profiles: moderate anisocytosis with numerous necrotic fibres. […] The A sign indicates the inflammatory foci with which fibrosis is associated. […] Indeed, 67% (6 out of 9 TA muscles) of the muscles treated with BIO103 can be classified in this category.

SMILES | increase in the maximum absolute isometric strength of the tibialis anterior muscle compared to mdx animals receiving the vehicle [1] | expression of myh7 in heart compared to mdx animals receiving the vehicle [2] | TA muscles with minor lesion profile [3] [%] | TA muscles with pronounced lesion profile tending towards atrophy [3] [%] | TA muscles with pronounced lesion profile with a somewhat necrotic tendency [3] [%] | TA muscles with severe lesion profile (large acute necrotic plaques with no regeneration) [3] [%] | TA muscles with pronounced lesion profile (anisocytosis, dispersed necrotic fibres and variable inflammation) [3] [%]
CCSCC(=O)[C@H]1CC[C@@]2(O)C3=CC(=O)[C@@H]4C[C@@H](O)[C@@H](O)C[C@]4(C)C3CC[C@]12C (stereo partly drawn) [BIO103, (2S,3R,5R,10R,13R,14S,17S)-17-(2-ethylsulfanylacetyl)-2,3,14-trihydroxy-10,13-dimethyl-2,3,4,5,9,11,12,15,16,17-decahydro-1H-cyclopenta[a]phenanthren-6-one] | +22.5% | significantly reduces | 67 | 11 | 11 | 11 | 
CC(C)(O)CC[C@@H](O)[C@](C)(O)[C@H]1CC[C@@]2(O)C3=CC(=O)[C@@H]4C[C@@H](O)[C@@H](O)C[C@]4(C)[C@H]3CC[C@]12C [BIO101, 20-hydroxyecdysone] | +15.3% | significantly reduces | 37.5 |  |  |  | 62.5
